Measured values as given in US20260250290A1 (BRISTOL-MYERS SQUIBB COMPANY, priority 2023, published 2026).

Molecular target: T1, full length SGK1 (Homo sapiens, UniProt O00141)
T1 construct: 125 μM full length SGK1 (Life Technologies Part #PR7358A); purchased Life Technologies PR7358A
T1 sequence (O00141 1-431): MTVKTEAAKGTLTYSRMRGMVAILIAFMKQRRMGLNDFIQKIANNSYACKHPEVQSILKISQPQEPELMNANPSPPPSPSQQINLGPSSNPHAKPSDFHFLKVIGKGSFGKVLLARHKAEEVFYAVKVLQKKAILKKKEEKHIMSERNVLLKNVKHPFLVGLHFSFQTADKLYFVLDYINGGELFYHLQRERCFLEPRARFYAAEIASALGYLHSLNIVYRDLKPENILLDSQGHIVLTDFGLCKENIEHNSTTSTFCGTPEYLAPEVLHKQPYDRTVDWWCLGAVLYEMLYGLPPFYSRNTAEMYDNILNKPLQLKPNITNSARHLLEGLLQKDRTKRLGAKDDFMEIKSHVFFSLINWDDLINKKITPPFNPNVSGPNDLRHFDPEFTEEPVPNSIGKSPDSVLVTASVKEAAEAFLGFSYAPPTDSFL
Test: SGK1 inhibition Assay A (Caliper LabChip electrophoretic separation of fluorescent peptide substrate and phosphorylated product)
Type: biochemical
Conditions: Assay A; 20 μM ATP, 40 min incubation; read-out: SGK1 IC50

Row | IC50 [µM] | SMILES
1 | 0.085 | COC(=O)N1CC=C(c2cc(N3CCC[C@@H](NC(=O)c4sc5ccccc5c4OC4CNC4)C3)c3c(N)ncnn23)C1 [Example 674, methyl (R)-3-(4-amino-5-(3-(3-(azetidin-3-yloxy)benzo[b]thiophene-2-carboxamido)piperidin-1-yl)pyrrolo[2,1-f][1,2,4]triazin-7-yl)-2,5-dihydro-1H-pyrrole-1-carboxylate]
2 | 0.035 | CC(=O)N1CC=C(c2cc(N3CCC[C@@H](NC(=O)c4sc5ccc(C#N)cc5c4OC4CCNCC4)C3)c3c(N)ncnn23)C1 [Example 677, (R)—N-(1-(7-(1-acetyl-2,5-dihydro-1H-pyrrol-3-yl)-4-aminopyrrolo[2,1-f][1,2,4]triazin-5-yl)piperidin-3-yl)-5-cyano-3-(piperidin-4-yloxy)benzo[b]thiophene-2-carboxamide]
3 | 0.477 | COC(=O)N1CC=C(c2cc(N3CCC[C@@H](NC(=O)c4sc5ccc(C#N)cc5c4OC4CCN(C(=O)OC(C)(C)C)CC4)C3)c3c(N)ncnn23)C1 [Example 678, tert-butyl (R)-4-((2-((1-(4-amino-7-(1-(methoxycarbonyl)-2,5-dihydro-1H-pyrrol-3-yl)pyrrolo[2,1-f][1,2,4]triazin-5-yl)piperidin-3-yl)carbamoyl)-5-cyanobenzo[b]thiophen-3-yl)oxy)piperidine-1-carboxylate]
4 | 0.193 | N=c1ccc(-c2cc(N3CCC[C@@H](NC(=O)c4ccc(Cl)s4)C3)c3c(N)ncnn23)cn1C(F)F [Example 683]
5 | 0.261 | COC(=O)N1CC=C(c2cc(N3CCC[C@@H](NC(=O)c4n[nH]c5ccc(C#N)cc45)C3)c3c(N)ncnn23)C1 [Example 684, methyl (R)-3-(4-amino-5-(3-(5-cyano-1H-indazole-3-carboxamido)piperidin-1-yl)pyrrolo[2,1-f][1,2,4]triazin-7-yl)-2,5-dihydro-1H-pyrrole-1-carboxylate]

Further lines, the molecule ahead of its results:

Row | SMILES | IC50 [µM]
6 | NC(=O)c1ccc(-c2cc(N3CCC[C@@H](NC(=O)c4sc5ccccc5c4OC4CNC4)C3)c3c(N)ncnn23)cn1 [Example 675, (R)-5-(4-amino-5-(3-(3-(azetidin-3-yloxy)benzo[b]thiophene-2-carboxamido)piperidin-1-yl)pyrrolo[2,1-f][1,2,4]triazin-7-yl)picolinamide] | 0.025
7 | CC(=O)N1CC=C(c2cc(N3CCC[C@@H](NC(=O)c4sc5ccc(C#N)cc5c4OC4CCN(C(=O)OC(C)(C)C)CC4)C3)c3c(N)ncnn23)C1 [Example 676, tert-butyl (R)-4-((2-((1-(7-(1-acetyl-2,5-dihydro-1H-pyrrol-3-yl)-4-aminopyrrolo[2,1-f][1,2,4]triazin-5-yl)piperidin-3-yl)carbamoyl)-5-cyanobenzo[b]thiophen-3-yl)oxy)piperidine-1-carboxylate] | 0.117
8 | CC(=O)N1CC=C(c2cc(N3CCC[C@@H](NC(=O)c4cn5ccc(C#N)cc5n4)C3)c3c(N)ncnn23)C1 [Example 679, (R)—N-(1-(7-(1-acetyl-2,5-dihydro-1H-pyrrol-3-yl)-4-aminopyrrolo[2,1-f][1,2,4]triazin-5-yl)piperidin-3-yl)-7-cyanoimidazo[1,2-a]pyridine-2-carboxamide] | 0.484
9 | CCn1cc(-c2cc(N3CCC[C@@H](NC(=O)c4sc(Cl)cc4OCCN(C)C)C3)c3c(N)ncnn23)ccc1=O [Example 682, (R)—N-(1-(4-amino-7-(1-ethyl-6-oxo-1,6-dihydropyridin-3-yl)pyrrolo[2,1-f][1,2,4]triazin-5-yl)piperidin-3-yl)-5-chloro-3-(2-(dimethylamino)ethoxy)thiophene-2-carboxamide] | 1.42
10 | N#Cc1ccc2[nH]nc(C(=O)N[C@@H]3CCCN(c4cc(-c5cncnc5)n5ncnc(N)c45)C3)c2c1 [Example 685, (R)—N-(1-(4-amino-7-(pyrimidin-5-yl)pyrrolo[2,1-f][1,2,4]triazin-5-yl)piperidin-3-yl)-5-cyano-1H-indazole-3-carboxamide] | 0.276
